How the values were obtained:
[1] = Stability in human kidney tissue preparations; format: in vitro ADME; conditions: in words
Source text: The pattern of in vitro stability of compound 3 (stable in serum but unstable in tissues) observed in rodents was also reproduced using human kidney tissues or serum. FIG. 7 compares the in vitro stability of compounds 1 and 3 in human kidney tissue preparations.
FIG. 8 depicts formation of the metabolite, compound 67, in human kidney tissue. Concomitant with the disappearance of compound 3, generation of the expected metabolite of the presumed intralysosomal degradation, compound 67, was detected using human kidney.

[2] = Tissue levels in rat six-hour after 8.4 mg/kg IV bolus; format: in vivo; conditions: in words
Procedure: Tissue levels of compounds 1, 2, 3 and 4 were evaluated in kidney, liver and lung six-hour after 8.4 mg/kg IV bolus administration. FIG. 13 depicts the levels as a function of time.
Compound 67, which is the expected metabolite of proteolytic intracellular degradation of compound 3, was detected in rat tissues after IV infusion, confirming the tissue-specific degradation of compound 3 (Tables 9A, B).

[3] = In vitro stability in rat serum and tissue homogenates (LC/MS/MS); format: in vitro ADME; conditions: rat kidney homogenates, as a function of time
Procedure: To test the stability of the compounds in vitro, samples were prepared and analyzed by LC/MS/MS according to the following procedure.
Homogenization: A chunk of fresh tissue was weighed and mixed with saline at 1:1 ratio (w/v) in a 12×75 mm polypropylene round bottom tube. The mixture was homogenized with a Polytron homogenizer (on ice, 3×10 seconds with 10 second intervals at the setting of 7).
Incubation and TCA-precipitation: An appropriate amount of a tissue homogenate was pre-warmed at 37° C. for 2 minutes in an Eppendorf tube. The compound to be tested was added to the tube to a final concentration of 2 μg/ml, mixed, and a 60 μl aliquot was immediately taken (as 0 hour sample) and mixed with 120 μl of 4% TCA (trichloroacetic acid) in an Eppendorf tube. The temperature of the tube containing the rest of the tissue sample was returned to 37° C. for incubation. Later, samples were taken as scheduled and mixed with TCA as described above. Plasma and lavage samples were directly incubated with the compounds without addition of saline and homogenization.
LC/MS/MS sample vial preparation: TCA-precipitated sample tubes were vortexed for 30 seconds, centrifuged in a microfuge at top speed (13.2 k rpm) for 5 minutes. The supernatant was collected. The pH was neutralized to about 3.5 with ammonium acetate buffer. The sample (45 μl) was transferred to a glass LC/MS/MS vial (Kimble, 11 mm, 1.5 ml) and 5 μl of an internal standard was added to a final concentration of 500 ng/ml. LC/MS/MS analysis was performed in Chemistry Department of San Diego State University.
LC/MS/MS protocol: Thermo-Finnigan TSQ Quantum triple sector mass spectrometer with electrospray (ESI) ionization was used to analyze the samples. The operation conditions were: Mobile phase of pH 3.00 water/formic acid: acetonitrile-methanol (45%:5%:50% by volume); Thermo-Keystone Betabasic C-18 column (2.1 mm×50 mm) operated at 0.100 mL/min.
Many proteases responsible for degrading EPI compounds are located in […]. Lysozymes typically have an acidic pH (about 4.8-5), whereas the pH in tissue homogenates that were prepared was higher (kidney, pH 6.8; liver, pH 6.6; and lung, pH 7.5). To test the effect of tissue homogenates closer to physiological conditions, the pH was lowered to about 6 by adding acetic acid to the tissue homogenates and compound stability was tested. FIG. 2 depicts the stability of compounds 1 and 3 at different pH. […] The pH-dependent degradation of compound 3 was especially evident in kidney homogenates.
FIG. 4 is a bar graph depicting the stability of compound 3 in the supernatant and pellet of kidney tissue homogenates.

[4] = Acute toxicity, minimal lethal dose after IV bolus in mice; format: in vivo, mouse; conditions: IV bolus into tail vein, lethal for at least one of three mice
Procedure: Acute toxicity was measured as minimal lethal dose (MLD). MLD is defined as a minimal concentration of a compound that has lethal effect for at least one mouse from the group of three mice after IV bolus injection into the mouse tail vein.

[5] = test system: P. aeruginosa, PAM1723, overexpressing the MexAB-OprM efflux pump; assay: Levofloxacin potentiation checkerboard assay (broth microdilution); format: cell-based; conditions: in words
Procedure: Stock solution was stored at −80° C.
The checkerboard assay was performed in microtiter plates. […] EPIs were diluted in the y axis, each row containing an equal concentration of an EPI. The result of these manipulations was that each well of the microtiter plate contains a unique combination of concentrations of the two agents. The assay was performed in MHB with a final bacterial inoculum of 5×10^5 CFU/ml (from an early-log phase culture). Microtiter plates were incubated during 20 h at 35° C. and were read using a microtiterplate reader (Molecular Devices) at 650 nm as well as visual observation using a microtiter plate-reading mirror.

[6] = test system: strain 29A2 of P. aeruginosa overexpressing MexAB-OprM efflux pump; assay: Neutropenic mice lung model of PA infection; format: in vivo; conditions: levofloxacin 30 mg/kg SQ plus EPI IP
Procedure: Neutropenia was induced by cyclophosphamide 100 mg/kg IP on days 3 and 1 prior to infection. The strain 29A2 of P. aeruginosa overexpressing MexAB-OprM efflux pump was grown overnight in Mueller-Hinton Broth (MHB). The next day overnight culture was diluted in fresh MHB and was allowed to re-grow to ˜10^8 CFU/mL (OD600˜0.3). The culture was spun down, washed twice with phosphate buffered saline (PBS) and re-suspended in PBS to ˜4×10^7 CFU/mL. 50 μl of inoculum was used for intratracheal instillation of mice, which were anesthetized with sevoflourane/oxygen. […] Four mice from each treatment group were euthanized at various times after the start of treatment. The lungs were removed aseptically, homogenized in saline, and immediately plated to determine bacterial load (CFU/ml) in infected lungs. P. aeruginosa is plotted as a function of time in FIG. 20.

[7] = Serum levels of compound 3 after administration of acylated forms in rats; format: in vivo, rat; conditions: compound 5 8.4 mg/kg injected, compound 43 10 mg/kg two-hour infusion
Procedure: Rats were injected with compound 5 (8.4 mg/kg) and serum levels of the parent compound 3 were evaluated after extraction. The serum levels as a function of time are depicted in FIG. 16.
Rats were infused for two hours with compound 43 at 10 mg/kg and serum levels of the parent compound 3 were evaluated after extraction. FIG. 17 depicts the serum levels of compound 3 as a function of time.

PAM1723 = conditions: summary of Table 4; in words
Procedure: Stability in rat and human serum was also evaluated using a bioassay. 320 μg/ml of the test compound was treated with 50% serum for 4 hours.
Bioassays as described in Example 62 and Example 65 were used to evaluate the stability of various compounds in serum and rabbit kidney homogenates.

[8] = test system: P. aeruginosa strain PAM1723 overexpressing MexAB-OprM efflux pump; assay: Neutropenic mice thigh model of PA infection; format: in vivo; conditions: levofloxacin 30 mg/kg SQ, EPI 60 mg/kg IP, 2 hours post-infection
Procedure: Efficacy of the EPIs was evaluated in a Neutropenic Mice Thigh Model of P. aeruginosa Infection. Neutropenia was induced by cyclophosphamide 100 mg/kg IP on days 3 and 1 prior to infection. P. aeruginosa strain PAM1723 overexpressing MexAB-OprM efflux pump was grown overnight in Mueller-Hinton Broth (MHB). The next day, the overnight culture was diluted in fresh MHB and was allowed to re-grow to ˜10^8 CFU/mL (OD600˜0.3). The culture was spun down, washed twice with phosphate buffered saline (PBS) and re-suspend in PBS to ˜4×10^6 CFU/mL. Next, this culture was mixed 1:1 with 14% hog-gastric mucin in PBS to give a final inoculum of 2×10^6 CFU/mL. Infection was initiated with injection of 0.1 mL of inoculum (˜2×10^5 CFU/thigh) directly into both thighs of each mouse. Two mice from each treatment group were euthanized at various times after the start of treatment. The thighs were removed aseptically, homogenized in saline, and immediately plated to determine bacterial load (CFU/ml). Treatment was initiated 2 hours post infection.

[9] = in vivo; cited from earlier work

## NC(CCc1ccccc1)C(=O)Nc1cnc2ccccc2c1 (stereo in doubt) [Compound 67, 2-(S)-Amino-4-phenyl-N-quinolin-3-yl-butyramide]
[1]
  generation of metabolite 67 from compound 3 in human kidney: detected
[2]
  detection of metabolite 67 in rat tissues after IV administration of compound 3: detected
[3]
  level of degradation product 67 formed from compound 3: increased

## NCCC[C@H](NC(=O)C[C@H](N)C(=O)O)C(=O)N[C@H](CCc1ccccc1)C(=O)Nc1cnc2ccccc2c1 [Compound 5, 2-(S)-Amino-N-{4-amino-1-(S)-[3-phenyl-1-(R)-(quinolin-3-ylcarbamoyl)-propylcarbamoyl]-butyl}-succinamic acid]
[4]
  MLD (minimal lethal dose): 75 mg/kg
[5]
  in vitro levofloxacin potentiating activity: devoid of levofloxacin potentiating activity
[6]
  bacterial load in infected lungs, EPI with levofloxacin: efficacious
[7]
  metabolism in serum to produce compound 3: readily metabolized

## N[C@@H](CC(=O)O)C(=O)NCCC[C@H](N)C(=O)N[C@H](CCc1ccccc1)C(=O)Nc1cnc2ccccc2c1 [Compound 34, 3-(S)-Amino-N-{4-(S)-amino-4-[3-phenyl-1-(R)-(quinolin-3-ylcarbamoyl)-propylcarbamoyl]-butyl}-succinamic acid]
[4]
  MLD (minimal lethal dose): 50 mg/kg
PAM1723
  stability in rat serum: unstable in rat serum

## N[C@@H](CC(=O)O)C(=O)NCCC[C@H](NC(=O)[C@@H](N)CC(=O)O)C(=O)N[C@H](CCc1ccccc1)C(=O)Nc1cnc2ccccc2c1 [Compound 43, 3-Amino-(S)—N-{4-(S)-(2-(3)-(S)-amino-3-carboxy-propionylamino)-4-[3-phenyl-1-(R)-(quinolin-3-ylcarbamoyl)-propylcarbamoyl]-butyl}-succinamic acid]
[8]
  bacterial load in thighs, EPI with levofloxacin versus levofloxacin alone: potentiated levofloxacin in vivo
[4]
  MLD (minimal lethal dose): 150 mg/kg
[5]
  in vitro levofloxacin potentiating activity: did not have in vitro levofloxacin potentiating activity
[7]
  metabolism in serum to produce compound 3: readily metabolized

## N=C(N)c1ccc(OCCCCCOc2ccc(C(=N)N)cc2)cc1 [pentamidine]
[9]
  incidence of kidney toxicity: above 75%

Reference: patent US7879795B2, “Enhancement of tigecycline potency using efflux pump inhibitors” (Mpex Pharmaceuticals, Inc., priority 2004, dated 2011)
